Measured values from ChEMBL document CHEMBL5678818, “Discovery of potent SOS1 inhibitors that block RAS activation via disruption of the RAS-SOS1 interaction” (Proc Natl Acad Sci U S A, 2019).

Columns and labels:
[1] = test system: Tyrosine-protein kinase ABL1 (Homo sapiens), P00519 [H396P]; assay: Inhibition of nonphosphorylated ABL1 H396P mutant (unknown origin) assessed as residual activity at 100 nM by KINOMEscan analysis relative to control
[2] = molecular target: RAC-beta serine/threonine-protein kinase (Homo sapiens) (UniProt P31751); assay: Inhibition of AKT2 (unknown origin) assessed as residual activity at 100 nM by KINOMEscan analysis relative to control
[3] = test system: Serine/threonine-protein kinase B-raf (Homo sapiens), P15056 [V600E]; assay: Inhibition of BRAF V600E mutant (unknown origin) assessed as residual activity at 100 nM by KINOMEscan analysis relative to control
[4] = molecular target: Mitotic checkpoint serine/threonine-protein kinase BUB1 (Homo sapiens) (UniProt O43683); assay: Inhibition of BUB1 (unknown origin) assessed as residual activity at 100 nM by KINOMEscan analysis relative to control
[5] = molecular target: Calcium/calmodulin-dependent protein kinase type 1G (Homo sapiens) (UniProt Q96NX5); assay: Inhibition of CAMK1G (unknown origin) assessed as residual activity at 100 nM by KINOMEscan analysis relative to control
[6] = test system: Receptor-type tyrosine-protein kinase FLT3 (Homo sapiens), P36888 [UNDEFINED MUTATION]; assay: Inhibition of FLT3 ITD mutant (unknown origin) assessed as residual activity at 100 nM by KINOMEscan analysis relative to control
[7] = molecular target: Mast/stem cell growth factor receptor Kit (Homo sapiens) (UniProt P10721); assay: Inhibition of KIT (unknown origin) assessed as residual activity at 100 nM by KINOMEscan analysis relative to control
[8] = molecular target: Tyrosine-protein kinase Lck (Homo sapiens) (UniProt P06239); assay: Inhibition of LCK (unknown origin) assessed as residual activity at 100 nM by KINOMEscan analysis relative to control
[9] = molecular target: Leukocyte tyrosine kinase receptor (Homo sapiens) (UniProt P29376); assay: Inhibition of LTK (unknown origin) assessed as residual activity at 100 nM by KINOMEscan analysis relative to control
[10] = molecular target: T1, Mitogen-activated protein kinase kinase kinase 2 (Homo sapiens) (UniProt Q9Y2U5); assay: Inhibition of MAP3K2 (unknown origin) assessed as residual activity at 100 nM by KINOMEscan analysis relative to control
T1 sequence (whole entry): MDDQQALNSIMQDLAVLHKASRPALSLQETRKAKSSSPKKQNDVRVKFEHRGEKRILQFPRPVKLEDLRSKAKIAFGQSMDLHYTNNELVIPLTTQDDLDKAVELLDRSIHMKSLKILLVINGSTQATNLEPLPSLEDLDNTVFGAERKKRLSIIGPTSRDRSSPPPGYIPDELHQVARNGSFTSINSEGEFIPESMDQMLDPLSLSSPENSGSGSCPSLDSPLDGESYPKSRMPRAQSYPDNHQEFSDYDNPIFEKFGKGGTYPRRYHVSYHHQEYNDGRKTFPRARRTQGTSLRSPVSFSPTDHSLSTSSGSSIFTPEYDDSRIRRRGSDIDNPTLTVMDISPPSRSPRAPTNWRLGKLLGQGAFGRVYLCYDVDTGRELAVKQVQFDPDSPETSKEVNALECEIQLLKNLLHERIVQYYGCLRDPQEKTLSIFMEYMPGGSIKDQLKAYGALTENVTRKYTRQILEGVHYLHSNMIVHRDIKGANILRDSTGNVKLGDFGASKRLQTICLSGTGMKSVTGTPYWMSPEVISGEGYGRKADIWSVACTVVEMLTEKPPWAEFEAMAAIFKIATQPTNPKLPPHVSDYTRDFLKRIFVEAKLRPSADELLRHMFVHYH

[11] = test system: Hepatocyte growth factor receptor (Homo sapiens), P08581 [Y1235D]; assay: Inhibition of MET Y1235D mutant (unknown origin) assessed as residual activity at 100 nM by KINOMEscan analysis relative to control
[12] = molecular target: Ribosomal protein S6 kinase alpha-3 (Homo sapiens) (UniProt P51812); assay: Inhibition of C-terminal RSK2 kinetic domain 2 (unknown origin) assessed as residual activity at 100 nM by KINOMEscan analysis relative to control
[13] = molecular target: Tyrosine-protein kinase SYK (Homo sapiens) (UniProt P43405); assay: Inhibition of SYK (unknown origin) assessed as residual activity at 100 nM by KINOMEscan analysis relative to control
[14] = molecular target: T2, Testis-specific serine/threonine-protein kinase 1 (Homo sapiens) (UniProt Q9BXA7); assay: Inhibition of TSSK1B (unknown origin) assessed as residual activity at 100 nM by KINOMEscan analysis relative to control
T2 sequence (whole entry): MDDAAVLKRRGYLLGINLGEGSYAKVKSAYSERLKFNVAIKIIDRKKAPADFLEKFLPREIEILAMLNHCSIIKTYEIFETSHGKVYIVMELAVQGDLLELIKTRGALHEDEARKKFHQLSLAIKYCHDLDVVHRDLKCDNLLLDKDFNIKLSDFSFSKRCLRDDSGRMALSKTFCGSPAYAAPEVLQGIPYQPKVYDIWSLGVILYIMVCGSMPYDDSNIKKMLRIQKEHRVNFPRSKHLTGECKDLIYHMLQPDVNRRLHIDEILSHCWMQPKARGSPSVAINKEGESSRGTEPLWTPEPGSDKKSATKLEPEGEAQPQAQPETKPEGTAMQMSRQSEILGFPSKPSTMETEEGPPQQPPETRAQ

[15] = molecular target: Wee1-like protein kinase (Homo sapiens) (UniProt P30291); assay: Inhibition of WEE1 (unknown origin) assessed as residual activity at 100 nM by KINOMEscan analysis relative to control
[16] = molecular target: Mitogen-activated protein kinase kinase kinase 20 (Homo sapiens) (UniProt Q9NYL2); assay: Inhibition of ZAK (unknown origin) assessed as residual activity at 100 nM by KINOMEscan analysis relative to control
Chain of Mitogen-activated protein kinase kinase kinase 20 (Homo sapiens) (Q9NYL2 2-800 limits assumed): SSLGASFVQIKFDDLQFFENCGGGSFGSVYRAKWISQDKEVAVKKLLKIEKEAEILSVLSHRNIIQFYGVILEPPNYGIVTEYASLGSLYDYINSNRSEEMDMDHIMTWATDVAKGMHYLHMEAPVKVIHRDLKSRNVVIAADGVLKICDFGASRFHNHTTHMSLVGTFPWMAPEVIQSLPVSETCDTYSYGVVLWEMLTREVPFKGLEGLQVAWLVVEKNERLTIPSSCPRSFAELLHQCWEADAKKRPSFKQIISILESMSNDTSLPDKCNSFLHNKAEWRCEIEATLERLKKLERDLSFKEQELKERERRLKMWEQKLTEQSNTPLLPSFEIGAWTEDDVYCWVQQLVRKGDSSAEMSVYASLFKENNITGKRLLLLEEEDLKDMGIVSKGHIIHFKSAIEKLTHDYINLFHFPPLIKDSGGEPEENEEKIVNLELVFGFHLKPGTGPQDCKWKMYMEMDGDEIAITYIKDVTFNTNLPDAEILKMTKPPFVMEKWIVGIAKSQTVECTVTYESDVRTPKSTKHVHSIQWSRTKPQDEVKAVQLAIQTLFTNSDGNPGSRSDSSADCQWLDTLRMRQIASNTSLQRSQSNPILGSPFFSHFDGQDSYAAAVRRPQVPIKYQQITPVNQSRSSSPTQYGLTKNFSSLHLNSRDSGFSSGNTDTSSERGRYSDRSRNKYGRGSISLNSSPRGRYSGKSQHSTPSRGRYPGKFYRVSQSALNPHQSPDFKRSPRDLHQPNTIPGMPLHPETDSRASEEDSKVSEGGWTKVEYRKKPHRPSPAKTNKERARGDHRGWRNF

Chain of Tyrosine-protein kinase Lck (Homo sapiens) (P06239 2-509 limits assumed): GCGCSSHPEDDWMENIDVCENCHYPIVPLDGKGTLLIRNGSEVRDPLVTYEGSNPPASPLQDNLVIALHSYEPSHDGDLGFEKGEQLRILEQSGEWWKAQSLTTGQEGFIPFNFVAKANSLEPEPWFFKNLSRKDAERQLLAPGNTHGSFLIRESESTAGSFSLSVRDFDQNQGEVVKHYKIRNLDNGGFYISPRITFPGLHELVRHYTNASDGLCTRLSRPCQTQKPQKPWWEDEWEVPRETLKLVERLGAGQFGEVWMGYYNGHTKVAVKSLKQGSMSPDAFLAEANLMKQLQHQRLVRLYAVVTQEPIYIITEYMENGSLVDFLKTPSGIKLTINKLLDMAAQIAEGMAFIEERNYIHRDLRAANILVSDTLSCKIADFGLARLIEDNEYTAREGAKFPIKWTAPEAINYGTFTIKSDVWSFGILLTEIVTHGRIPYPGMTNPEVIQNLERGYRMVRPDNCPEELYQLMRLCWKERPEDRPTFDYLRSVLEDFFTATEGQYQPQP
Chain of Receptor-type tyrosine-protein kinase FLT3 (Homo sapiens), P36888 [UNDEFINED MUTATION] (P36888 whole entry, looked up, change not shown): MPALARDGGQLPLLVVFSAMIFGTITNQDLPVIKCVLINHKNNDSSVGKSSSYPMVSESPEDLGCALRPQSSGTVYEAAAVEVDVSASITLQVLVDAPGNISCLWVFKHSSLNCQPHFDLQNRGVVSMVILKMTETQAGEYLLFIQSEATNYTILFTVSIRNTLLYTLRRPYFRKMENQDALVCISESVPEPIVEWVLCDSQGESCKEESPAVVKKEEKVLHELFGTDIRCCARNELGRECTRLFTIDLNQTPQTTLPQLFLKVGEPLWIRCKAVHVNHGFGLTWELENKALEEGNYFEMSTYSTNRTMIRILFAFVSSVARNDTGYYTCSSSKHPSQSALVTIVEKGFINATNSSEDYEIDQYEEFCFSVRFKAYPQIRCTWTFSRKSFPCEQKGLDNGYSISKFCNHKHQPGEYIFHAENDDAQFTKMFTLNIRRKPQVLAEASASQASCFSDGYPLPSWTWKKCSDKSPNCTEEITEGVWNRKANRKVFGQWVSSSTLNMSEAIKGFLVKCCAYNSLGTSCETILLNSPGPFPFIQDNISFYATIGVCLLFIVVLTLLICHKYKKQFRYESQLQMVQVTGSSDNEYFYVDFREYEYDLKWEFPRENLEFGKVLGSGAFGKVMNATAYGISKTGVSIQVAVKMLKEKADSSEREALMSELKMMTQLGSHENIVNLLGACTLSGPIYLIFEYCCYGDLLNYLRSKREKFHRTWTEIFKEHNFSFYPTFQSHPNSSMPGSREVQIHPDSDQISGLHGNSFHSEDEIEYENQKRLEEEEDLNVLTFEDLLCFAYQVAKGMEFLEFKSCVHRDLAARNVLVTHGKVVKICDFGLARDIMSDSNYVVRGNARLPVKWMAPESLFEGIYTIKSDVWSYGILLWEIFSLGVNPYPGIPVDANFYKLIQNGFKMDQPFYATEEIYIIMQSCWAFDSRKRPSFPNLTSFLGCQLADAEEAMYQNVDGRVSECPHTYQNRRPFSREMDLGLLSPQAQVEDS
Chain of Leukocyte tyrosine kinase receptor (Homo sapiens) (P29376 whole entry): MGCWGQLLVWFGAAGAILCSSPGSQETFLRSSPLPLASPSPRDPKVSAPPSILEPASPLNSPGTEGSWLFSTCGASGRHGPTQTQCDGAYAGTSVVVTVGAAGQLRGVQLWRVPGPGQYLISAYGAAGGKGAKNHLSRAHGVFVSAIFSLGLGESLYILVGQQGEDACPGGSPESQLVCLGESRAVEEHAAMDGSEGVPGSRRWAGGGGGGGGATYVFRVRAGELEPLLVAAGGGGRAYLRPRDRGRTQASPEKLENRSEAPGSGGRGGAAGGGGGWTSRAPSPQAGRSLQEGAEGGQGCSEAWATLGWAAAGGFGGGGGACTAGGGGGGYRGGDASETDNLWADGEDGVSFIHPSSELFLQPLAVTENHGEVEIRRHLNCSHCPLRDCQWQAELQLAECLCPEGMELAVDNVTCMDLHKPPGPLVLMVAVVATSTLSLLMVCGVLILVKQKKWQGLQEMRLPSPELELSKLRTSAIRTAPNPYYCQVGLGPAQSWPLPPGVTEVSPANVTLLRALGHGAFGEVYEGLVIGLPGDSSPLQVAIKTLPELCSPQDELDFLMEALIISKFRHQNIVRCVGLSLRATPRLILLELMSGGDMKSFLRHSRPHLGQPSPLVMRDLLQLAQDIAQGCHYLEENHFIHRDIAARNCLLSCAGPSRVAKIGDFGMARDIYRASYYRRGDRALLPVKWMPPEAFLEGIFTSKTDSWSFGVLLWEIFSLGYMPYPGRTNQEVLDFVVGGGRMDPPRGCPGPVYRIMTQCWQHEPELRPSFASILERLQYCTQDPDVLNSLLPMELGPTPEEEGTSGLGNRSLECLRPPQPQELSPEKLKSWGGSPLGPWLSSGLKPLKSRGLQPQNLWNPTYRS
Chain of Calcium/calmodulin-dependent protein kinase type 1G (Homo sapiens) (Q96NX5 whole entry): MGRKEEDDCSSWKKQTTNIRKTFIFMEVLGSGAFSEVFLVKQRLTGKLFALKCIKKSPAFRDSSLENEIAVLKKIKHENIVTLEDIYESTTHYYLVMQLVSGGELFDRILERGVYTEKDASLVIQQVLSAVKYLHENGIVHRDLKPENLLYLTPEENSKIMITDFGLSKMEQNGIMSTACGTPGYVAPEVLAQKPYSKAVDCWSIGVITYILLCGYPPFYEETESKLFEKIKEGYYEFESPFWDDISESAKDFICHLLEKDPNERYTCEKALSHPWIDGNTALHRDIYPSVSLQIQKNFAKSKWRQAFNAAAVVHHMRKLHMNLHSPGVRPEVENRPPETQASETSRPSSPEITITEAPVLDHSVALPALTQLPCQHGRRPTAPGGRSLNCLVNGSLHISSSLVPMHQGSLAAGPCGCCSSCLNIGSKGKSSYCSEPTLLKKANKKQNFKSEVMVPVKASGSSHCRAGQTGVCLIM
Chain of Serine/threonine-protein kinase B-raf (Homo sapiens), P15056 [V600E] (P15056 whole entry V600E): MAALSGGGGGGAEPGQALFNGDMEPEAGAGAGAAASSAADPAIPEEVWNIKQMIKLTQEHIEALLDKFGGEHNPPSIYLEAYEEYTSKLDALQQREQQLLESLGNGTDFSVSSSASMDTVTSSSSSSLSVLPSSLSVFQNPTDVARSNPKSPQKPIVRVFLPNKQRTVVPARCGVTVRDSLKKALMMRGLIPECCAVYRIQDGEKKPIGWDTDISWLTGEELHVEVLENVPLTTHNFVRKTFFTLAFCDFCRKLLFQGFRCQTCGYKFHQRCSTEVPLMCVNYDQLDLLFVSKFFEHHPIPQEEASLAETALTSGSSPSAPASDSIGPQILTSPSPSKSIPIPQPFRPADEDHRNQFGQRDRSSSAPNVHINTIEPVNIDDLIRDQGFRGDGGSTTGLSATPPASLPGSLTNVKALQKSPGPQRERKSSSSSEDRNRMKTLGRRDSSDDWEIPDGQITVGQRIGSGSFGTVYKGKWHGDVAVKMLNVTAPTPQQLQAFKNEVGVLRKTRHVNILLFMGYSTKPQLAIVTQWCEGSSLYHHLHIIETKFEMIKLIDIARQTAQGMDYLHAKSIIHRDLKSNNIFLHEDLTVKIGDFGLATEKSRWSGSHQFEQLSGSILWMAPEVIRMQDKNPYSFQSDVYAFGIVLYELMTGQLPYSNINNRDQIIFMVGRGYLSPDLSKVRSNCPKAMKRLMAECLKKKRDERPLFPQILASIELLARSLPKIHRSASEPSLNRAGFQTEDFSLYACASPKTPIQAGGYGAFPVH
Chain of RAC-beta serine/threonine-protein kinase (Homo sapiens) (P31751 whole entry): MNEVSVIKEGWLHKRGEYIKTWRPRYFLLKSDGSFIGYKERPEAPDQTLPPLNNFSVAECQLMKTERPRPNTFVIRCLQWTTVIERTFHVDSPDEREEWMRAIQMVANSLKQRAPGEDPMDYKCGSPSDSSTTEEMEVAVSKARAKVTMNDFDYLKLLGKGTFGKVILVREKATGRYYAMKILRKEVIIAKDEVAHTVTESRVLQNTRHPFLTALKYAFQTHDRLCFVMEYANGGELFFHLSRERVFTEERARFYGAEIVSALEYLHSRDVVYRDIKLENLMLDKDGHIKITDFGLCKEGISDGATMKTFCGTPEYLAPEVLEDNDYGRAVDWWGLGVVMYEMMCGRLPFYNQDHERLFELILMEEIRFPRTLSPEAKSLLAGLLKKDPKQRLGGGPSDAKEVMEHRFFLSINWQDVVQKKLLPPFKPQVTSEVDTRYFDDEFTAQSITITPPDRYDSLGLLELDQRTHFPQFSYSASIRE

Compound `COc1cc2ncnc(N[C@H](C)c3cccc4ccccc34)c2cc1OC` has an Activity [1] of 100%, an Activity [2] of 88% and an Activity [3] of 92%. It also gave an Activity [4] of 100%, an Activity [5] of 72% and an Activity [6] of 100%. For the same compound, the Activity [7] was 100%, the Activity [8] was 100% and the Activity [9] was 97%. For the same compound, the Activity [10] was 87%, the Activity [11] was 83% and the Activity [12] was 92%. It also gave an Activity [13] of 100%, an Activity [14] of 84% and an Activity [15] of 88%. The Activity [16] was 51%.
